What is called IC50 is the concentration that gives 50% inhibition.

For this assay, the target named is T1, MAGL (Homo sapiens, UniProt Q99685).
T1 sequence (Q99685 1-303): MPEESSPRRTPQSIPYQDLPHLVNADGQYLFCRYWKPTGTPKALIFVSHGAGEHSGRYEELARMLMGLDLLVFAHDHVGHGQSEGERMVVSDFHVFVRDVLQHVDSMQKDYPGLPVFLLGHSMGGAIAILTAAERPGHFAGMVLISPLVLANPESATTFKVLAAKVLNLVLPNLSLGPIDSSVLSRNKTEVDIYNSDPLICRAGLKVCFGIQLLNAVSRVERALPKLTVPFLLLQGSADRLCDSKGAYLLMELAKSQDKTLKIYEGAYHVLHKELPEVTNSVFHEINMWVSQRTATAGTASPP
Description: 2-AG assay: MAGL inhibitory activity by hydrolysis of 2-arachidonoylglycerol to arachidonic acid, followed by mass spectrometry. In kind it is biochemical. The conditions noted are these: 8 μM 2-arachidonoylglycerol, 15 min preincubation and 30 min reaction at RT, arachidonic acid/d8-arachidonic acid ratio by MS. On the procedure: Compounds of formula (I) were profiled for MAGL inhibitory activity by determining the enzymatic activity by following the hydrolysis of the natural substrate 2-arachidonoylglycerol (2-AG) resulting in arachidonic acid, which can be followed by mass spectrometry. This assay is hereinafter abbreviated “2-AG assay”.
The 2-AG assay was carried out in 384 well assay plates (PP, Greiner Cat #784201) in a total volume of 20 μL. Compound dilutions were made in 100% DMSO (VWR Chemicals 23500.297) in a polypropylene plate in 3-fold dilution steps to give a final concentration range in the assay from 12.5 μM to […]. 0.25 μL compound dilutions (100% DMSO) were added to 9 μL MAGL in assay buffer (50 mM TRIS (GIBCO, 15567-027), 1 mM EDTA (Fluka, 03690-100 mL), 0.01% (v/v) Tween. After shaking, the plate was incubated for 15 min at RT. To start the reaction, 10 μL 2-arachidonoylglycerol in assay buffer was added. The final concentrations in the assay was […] and 8 μM 2-arachidonoylglyerol. After shaking and 30 min incubation at RT, the reaction was quenched by the addition of 40 μL of ACN containing 4 μM of d8-arachidonic acid. The amount of arachidonic acid was traced by an online SPE system (Agilent Rapidfire) coupled to a triple quadrupole mass spectrometer (Agilent 6460). A C18 SPE cartridge (G9205A) was used in an ACN/water liquid setup. The mass spectrometer was operated in negative electrospray mode following the mass transitions 303.1→259.1 for arachidonic acid and 311.1→267.0 for d8-arachidonic acid. The activity of the compounds was calculated based on the ratio of intensities [arachidonic acid/d8-arachidonic acid].
Regarding `Cc1ccncc1Oc1ccc(C2CN(C(=O)N3CC[C@@H]4OCC(=O)N[C@@H]4C3)C2)cc1` [Example 7, (+)-(4aR,8aS)-6-[3-[4-[(4-Methyl-3-pyridyl)oxy]phenyl]azetidine-1-carbonyl]-4,4a,5,7,8,8a-hexahydropyrido[4,3-b][1,4]oxazin-3-one], the IC50 worked out at 0.5 nM. Next, `O=C1CO[C@H]2CCN(C(=O)N3CC(c4ccc(-c5ncccc5Cl)cc4)C3)C[C@H]2N1` [Example 33, (4aR,8aS)-6-[3-[4-(3-Chloro-2-pyridyl)phenyl]azetidine-1-carbonyl]-4,4a,5,7,8,8a-hexahydropyrido[4,3-b][1,4]oxazin-3-one]: 2.7 nM. With `Cc1cc(C)n(-c2ccc(C3CN(C(=O)N4CC[C@@H]5OCC(=O)N[C@@H]5C4)C3)cc2)n1` [Example 35, (4aR,8aS)-6-[3-[4-(3,5-Dimethylpyrazol-1-yl)phenyl]azetidine-1-carbonyl]-4,4a,5,7,8,8a-hexahydropyrido[4,3-b][1,4]oxazin-3-one], the IC50 turned out to be 17.4 nM. For the compound `Cn1cc(-c2ccc(C3CN(C(=O)N4CC[C@@H]5OCC(=O)N[C@@H]5C4)C3)cc2)cn1` [Example 45, (4aR,8aS)-6-[3-[4-(1-Methylpyrazol-4-yl)phenyl]azetidine-1-carbonyl]-4,4a,5,7,8,8a-hexahydropyrido[4,3-b][1,4]oxazin-3-one], the IC50 came to 134 nM. In the case of `O=C1CO[C@H]2CCN(C(=O)N3CC(O)(c4ccc(Oc5ccccc5)cc4)C3)C[C@H]2N1` [Example 55, (4aR,8aS)-6-[3-Hydroxy-3-(4-phenoxyphenyl)azetidine-1-carbonyl]-4,4a,5,7,8,8a-hexahydropyrido[4,3-b][1,4]oxazin-3-one], the IC50 came out at 10.3 nM. Next, `CS(=O)(=O)c1nccc(Oc2ccc(C3CN(C(=O)N4CC[C@@H]5OCC(=O)N[C@@H]5C4)C3)cc2)n1` [Example 29, (+)-(4aR,8aS)-6-[3-[4-(2-Methylsulfonylpyrimidin-4-yl)oxyphenyl]azetidine-1-carbonyl]-4,4a,5,7,8,8a-hexahydropyrido[4,3-b][1,4]oxazin-3-one]: 90.9 nM; `Cc1ccccc1Oc1ccc(C2CN(C(=O)N3CC[C@@H]4OCC(=O)N[C@@H]4C3)C2)cc1` [Example 21, (+)-(4aR,8aS)-6-[3-[4-(2-Methylphenoxy)phenyl]azetidine-1-carbonyl]-4,4a,5,7,8,8a-hexahydropyrido[4,3-b][1,4]oxazin-3-one]: 0.03 nM; `O=C1CO[C@H]2CCN(C(=O)N3CC(c4ccc(Oc5ccnnc5Cl)cc4)C3)C[C@H]2N1` [Example 12, (+)-(4aR,8aS)-6-[3-[4-(3-Chloropyridazin-4-yl)oxyphenyl]azetidine-1-carbonyl]-4,4a,5,7,8,8a-hexahydropyrido[4,3-b][1,4]oxazin-3-one]: 23.5 nM. Next, `O=C1CO[C@H]2CCN(C(=O)N3CC(c4ccc(Oc5cccc(F)c5)cc4)C3)C[C@H]2N1` [Example 15, (+)-(4aR,8aS)-6-[3-[4-(3-Fluorophenoxy)phenyl]azetidine-1-carbonyl]-4,4a,5,7,8,8a-hexahydropyrido[4,3-b][1,4]oxazin-3-one]: 0.11 nM. Next, `O=C1CO[C@H]2CCN(C(=O)N3CC(c4ccc(Oc5nccc(C(F)(F)F)n5)cc4)C3)C[C@H]2N1` [Example 14, (+)-(4aR,8aS)-6-[3-[4-[4-(Trifluoromethyl)pyrimidin-2-yl]oxyphenyl]azetidine-1-carbonyl]-4,4a,5,7,8,8a-hexahydropyrido[4,3-b][1,4]oxazin-3-one]: 13.4 nM. `Cc1csc(-c2ccc(C3CN(C(=O)N4CC[C@@H]5OCC(=O)N[C@@H]5C4)C3)cc2)n1` [Example 41, (4aR,8aS)-6-[3-[4-(4-Methyl-1,3-thiazol-2-yl)phenyl]azetidine-1-carbonyl]-4,4a,5,7,8,8a-hexahydropyrido[4,3-b][1,4]oxazin-3-one]: the IC50 worked out at 24.6 nM. In the case of `O=C1CO[C@H]2CCN(C(=O)N3CC(c4ccc(Oc5ccc(Cl)cc5)cc4)C3)C[C@H]2N1` [Example 19, (+)-(4aR,8aS)-6-[3-[4-(4-Chlorophenoxy)phenyl]azetidine-1-carbonyl]-4,4a,5,7,8,8a-hexahydropyrido[4,3-b][1,4]oxazin-3-one], the IC50 amounted to 0.01 nM.

Regarding `O=C1CO[C@H]2CCN(C(=O)N3CC(c4ccc(Oc5ccccc5F)cc4)C3)C[C@H]2N1` [Example 18, (+)-(4aR,8aS)-6-[3-[4-(2-fluorophenoxy)phenyl]azetidine-1-carbonyl]-4,4a,5,7,8,8a-hexahydropyrido[4,3-b][1,4]oxazin-3-one], the IC50 was found to be 0.05 nM. Next, `O=C1CO[C@H]2CCN(C(=O)N3CC(c4ccc(Oc5cccnn5)cc4)C3)C[C@H]2N1` [Example 6, (+)-(4aR,8aS)-6-[3-(4-Pyridazin-3-yloxyphenyl)azetidine-1-carbonyl]-4,4a,5,7,8,8a-hexahydropyrido[4,3-b][1,4]oxazin-3-one]: 133 nM; `O=C1CO[C@H]2CCN(C(=O)N3CC(c4ccc(Oc5nccc(C6CC6)n5)cc4)C3)C[C@H]2N1` [Example 25, (+)-(4aR,8aS)-6-[3-[4-(4-Cyclopropylpyrimidin-2-yl)oxyphenyl]azetidine-1-carbonyl]-4,4a,5,7,8,8a-hexahydropyrido[4,3-b][1,4]oxazin-3-one]: 4.2 nM; `O=C1CO[C@H]2CCN(C(=O)N3CC(c4ccc(Oc5cccc(C(F)(F)F)c5)cc4)C3)C[C@H]2N1` [Example 22, (+)-(4aR,8aS)-6-[3-[4-[3-(Trifluoromethyl)phenoxy]phenyl]azetidine-1-carbonyl]-4,4a,5,7,8,8a-hexahydropyrido[4,3-b][1,4]oxazin-3-one]: 0.06 nM.

Consider `O=C1CO[C@H]2CCN(C(=O)N3CCC(c4ccc(Oc5ccccc5)cc4)CC3)C[C@H]2N1` [Example 57, (4aR,8aS)-6-[4-(4-Phenoxyphenyl)piperidine-1-carbonyl]-4,4a,5,7,8,8a-hexahydropyrido[4,3-b][1,4]oxazin-3-one], for which the IC50 came to 17.8 nM. The value for `O=C1CO[C@H]2CCN(C(=O)N3CC(c4ccc(-c5cnn(CCF)c5)cc4)C3)C[C@H]2N1` [Example 40, (4aR,8aS)-6-[3-[4-[1-(2-Fluoroethyl)pyrazol-4-yl]phenyl]azetidine-1-carbonyl]-4,4a,5,7,8,8a-hexahydropyrido[4,3-b][1,4]oxazin-3-one] was 73.1 nM; that for `O=C1CO[C@H]2CCN(C(=O)N3CC(c4ccc(Oc5ccc(F)cc5)cc4)C3)C[C@H]2N1` [Example 16, (+)-(4aR,8aS)-6-[3-[4-(4-Fluorophenoxy)phenyl]azetidine-1-carbonyl]-4,4a,5,7,8,8a-hexahydropyrido[4,3-b][1,4]oxazin-3-one] was 0.05 nM; that for `O=C1CO[C@H]2CCN(C(=O)N3CC(c4ccc(Oc5ccc(OC(F)(F)F)cc5)nc4)C3)C[C@H]2N1` [Example 49, (4aR,8aS)-6-(3-(6-(4-(Trifluoromethoxy)phenoxy)pyridin-3-yl)azetidine-1-carbonyl)hexahydro-2H-pyrido[4,3-b][1,4]oxazin-3(4H)-one] was 2.4 nM. Next, `O=C1CO[C@H]2CCN(C(=O)N3CC(c4ccc(Oc5ccccc5Cl)nc4)C3)C[C@H]2N1` [Example 52, (4aR,8aS)-6-(3-(6-(2-Chlorophenoxy)pyridin-3-yl)azetidine-1-carbonyl)hexahydro-2H-pyrido[4,3-b][1,4]oxazin-3(4H)-one]: 1.3 nM; `O=C1CO[C@H]2CCN(C(=O)N3CC(c4ccc(Oc5ccnc(Cl)n5)cc4)C3)C[C@H]2N1` [Example 24, (+)-(4aR,8aS)-6-[3-[4-(2-Chloropyrimidin-4-yl)oxyphenyl]azetidine-1-carbonyl]-4,4a,5,7,8,8a-hexahydropyrido[4,3-b][1,4]oxazin-3-one]: 0.04 nM; `CC(C)(C)Cc1nnc(-c2ccc(C3CN(C(=O)N4CC[C@@H]5OCC(=O)N[C@@H]5C4)C3)cc2)o1` [Example 38, (4aR,8aS)-6-[3-[4-[5-(2,2-Dimethylpropyl)-1,3,4-oxadiazol-2-yl]phenyl]azetidine-1-carbonyl]-4,4a,5,7,8,8a-hexahydropyrido[4,3-b][1,4]oxazin-3-one]: 8.5 nM. The value for `Cc1ccc(C)c(Oc2ccc(C3CN(C(=O)N4CC[C@@H]5OCC(=O)N[C@@H]5C4)C3)cc2)n1` [Example 30, (4aR,8aS)-6-[3-[4-[(3,6-Dimethyl-2-pyridyl)oxy]phenyl]azetidine-1-carbonyl]-4,4a,5,7,8,8a-hexahydropyrido[4,3-b][1,4]oxazin-3-one] was 0.7 nM.

Source of the values: US11814375B2, “Heterocyclic compounds” (Hoffmann-La Roche Inc., priority 2019, dated 2023).
